# In US20240262847A1, “COVALENT RAS INHIBITORS AND USES THEREOF” (Revolution Medicines, Inc., priority 2021, published 2024):
# Molecular target: T1, GDP-loaded K-Ras (1-169) G12D, C51S, C80L, C118S (Homo sapiens, UniProt P01116, C118S/C51S/C80L/G12D)
# T1 construct: GDP-loaded K-Ras (1-169) G12D, C51S, C80L, C118S
# Assay: K-Ras G12D(GDP) cross-linking assay (mass spectrometry, percent covalent modification)
# Assay type: binding
# Conditions: room temperature
# Procedure: Protocol: K-Ras G12D(GDP) Cross-Linking Assay
# Note: While the Following Protocol Outlines the Procedure for K-Ras G12D(GDP), a Person of Skill in the Art May Substitute Other Ras Proteins, and May Also Substitute a Non-Hydrolyzable GTP Analog for GDP to Study GTP Bound Ras Protein.
# GDP-loaded K-Ras (1-169) G12D, C51S, C80L, C118S and GDP-loaded K-Ras (1-169) C51S, C80L, C118S were adjusted to 50 μM in K-Ras assay buffer (12.5 mM HEPES, 75 mM NaCl and 1 mM MgCl2 at pH 7.4). A 5 μL aliquot of each protein solution was added to each well of a 96-well microplate containing 40 μL of assay buffer. Initial compound stocks were prepared in DMSO at 100 times their final assay concentration. Compounds were then diluted 10-fold into K-Ras assay buffer to 10 times their final concentration. A 5 μL aliquot of each diluted compound solution was added to each protein solution in the 96-well microplate to initiate the reaction, which then proceeded at room temperature. Typical final compound concentrations were 2, 10, and 25 μM. At each time point, the reactions were analyzed immediately or quenched with 5 μL of a 5% formic acid solution and kept at 4° C. until analysis. Typical assay endpoints were 1, 6 and 24 h.
# Data collection took place on an Agilent 6230 TOF Mass Spectrometer. Complete reactions were injected onto a C4 reverse-phase column to separate protein from buffer components prior to entering the mass spectrometer. The proteins were eluted from the column by increasing acetonitrile fraction in the mobile phase and fed directly into the mass analyzer. Initial analysis of raw data took place on Agilent MassHunter BioConfirm software and consisted of deconvolution of multiple protein charge states with the maximum entropy algorithm, with a mass step of 1 Da. The heights of all deconvoluted protein masses were exported for further data analysis. The percent modification of each protein was then determined by calculating the peak height of the covalently modified K-Ras species as a percentage of the sum total of K-Ras protein peak height.
SMILES,cross-linking to K-Ras G12D (at times up to 24 hours),cross-linking to K-Ras G12D (at 24 hours)
"Oc1cc(-c2ncc3c(N4C[C@H]5CC[C@@H](C4)N5C[C@@H]4CN4)nc(OC[C@@]45CCCN4C[C@H](F)C5)nc3c2F)c2c(F)cccc2c1 [Compound B4, 4-(4-((1R,5S)-8-(((S)-aziridin-2-yl)methyl)-3,8-diazabicyclo[3.2.1]octan-3-yl)-8-fluoro-2-(((2R,7aS)-2-fluorotetrahydro-1H-pyrrolizin-7a(5H)-yl)methoxy)pyrido[4,3-d]pyrimidin-7-yl)-5-fluoronaphthalen-2-ol]",no cross-linking,–
"O=C([C@@H]1CN1)N1[C@@H]2CC[C@H]1CN(c1nc(OC[C@@]34CCCN3C[C@H](F)C4)nc3c(F)c(-c4cc(O)cc5cccc(F)c45)ncc13)C2 [Compound B2, ((S)-aziridin-2-yl)((1R,5S)-3-(8-fluoro-7-(8-fluoro-3-hydroxynaphthalen-1-yl)-2-(((2R,7aS)-2-fluorotetrahydro-1H-pyrrolizin-7a(5H)-yl)methoxy)pyrido[4,3-d]pyrimidin-4-yl)-3,8-diazabicyclo[3.2.1]octan-8-yl)methanone]",no cross-linking,–
"O=C([C@H]1CN1)N1C=C(c2ncc3c(N4C[C@H]5CC[C@@H](C4)N5)nc(OC[C@@]45CCCN4C[C@H](F)C5)nc3c2F)c2c(F)cccc2C1 [Compound B23, (4-(4-((1R,5S)-3,8-diazabicyclo[3.2.1]octan-3-yl)-8-fluoro-2-(((2R,7aS)-2-fluorotetrahydro-1H-pyrrolizin-7a(5H)-yl)methoxy)pyrido[4,3-d]pyrimidin-7-yl)-5-fluoroisoquinolin-2(1H)-yl)((R)-aziridin-2-yl)methanone]",no cross-linking,–
"O=C([C@@H]1CN1)N1C=C(c2ncc3c(N4C[C@H]5CC[C@@H](C4)N5)nc(OC[C@@]45CCCN4C[C@H](F)C5)nc3c2F)c2c(F)cccc2C1 [Compound B24, (4-(4-((1R,5S)-3,8-diazabicyclo[3.2.1]octan-3-yl)-8-fluoro-2-(((2R,7aS)-2-fluorotetrahydro-1H-pyrrolizin-7a(5H)-yl)methoxy)pyrido[4,3-d]pyrimidin-7-yl)-5-fluoroisoquinolin-2(1H)-yl)((S)-aziridin-2-yl)methanone]",no cross-linking,–
"Oc1cc(-c2ncc3c(N4C[C@H]5CC[C@@H](C4)N5C[C@H]4CN4)nc(OC[C@@]45CCCN4C[C@H](F)C5)nc3c2F)c2c(F)cccc2c1 [Compound B3, 4-(4-((1R,5S)-8-(((R)-aziridin-2-yl)methyl)-3,8-diazabicyclo[3.2.1]octan-3-yl)-8-fluoro-2-(((2R,7aS)-2-fluorotetrahydro-1H-pyrrolizin-7a(5H)-yl)methoxy)pyrido[4,3-d]pyrimidin-7-yl)-5-fluoronaphthalen-2-ol]",–,greater than 0%
"O=C([C@H]1CN1)N1[C@@H]2CC[C@H]1CN(c1nc(OC[C@@]34CCCN3C[C@H](F)C4)nc3c(F)c(-c4cc(O)cc5cccc(F)c45)ncc13)C2 [Compound B1, ((R)-aziridin-2-yl)((1R,5S)-3-(8-fluoro-7-(8-fluoro-3-hydroxynaphthalen-1-yl)-2-(((2R,7aS)-2-fluorotetrahydro-1H-pyrrolizin-7a(5H)-yl)methoxy)pyrido[4,3-d]pyrimidin-4-yl)-3,8-diazabicyclo[3.2.1]octan-8-yl)methanone]",no cross-linking,–
